Data set [1] can be described thus: Solubility (description of the substance). It counts as physicochemical. To be noted: organic solvents.
Another data set deals with mice of ICR strain. In words: in vivo. To be noted: oral, male and female mice. On the procedure:
(§1) (a) Acute oral toxicity in mice:
(§2) Groups of male and female mice of ICR strain weighing 25-35 g were used for the test, each group consisting of 6 mice. […] LD₅₀ values of the compound of this invention were calculated for each concentration according to the Litchfield-Wilcoxon's method from the number of dead mice during one week.

Another data set can be described thus: in vivo. To be noted: mouse, in vivo, po, LD₅₀, oral administration, Litchfield-Wilcoxon's method, dead mice during one week. On the procedure:
as §1, §2

In data set [2] the test system is carrageenin-induced hind paw edema. In words: Inhibitory effect on carrageenin-induced hind paw edema in rats. It counts as in vivo, rats of Wistar strain. To be noted: male Wistar rats, 8 per group, oral; reference drugs at LD₅₀ amount, compound of this invention equimolar to diclofenac sodium salt; compared with Control group (P<0.01); no significant difference between the test compounds. An excerpt:
(a) Inhibitory effect on carrageenin-induced hind paw edema in rats:
40 Male rats of Wistar strain weighing 100-130 g were divided into the following 5 groups each consisting of 8 rats: 1. Control group, 2. Group for the administration of the compound of this invention, 3. Group for the administration of diclofenac Na, 4. Group for the administration of flurubiprofen and 5. Group for the administration of indomethacin. Prior to the administration of the test compounds, plantar injections 1% carrageenin solution were made to each rat to induce hind paw edema. To each rat of the Groups 3, 4 and 5, the LD₅₀ amount of the relevant test compound was orally administered in molar amounts. The compound of the present invention was administered in an equimolar amount to the diclofenac sodium salt.

Data set [3] relates to male rats of Wistar strain. It counts as in vivo. As for the experimental part:
(b) Gastric ulcerogenic action:
Three groups of male rats of Wistar strain weighing 300-340 g were used, each group consisting of 7 rats; one group (Group 1) was used for control, another group (Group 2) for the administration of the compound of this invention and the other group (Group 3) for the administration of diclofenac sodium salt. After 24 hour fasting prior to the test, the compound of this invention and the diclofenac sodium salt were orally administered each in a dose of 20 mg/kg to the rats of the relevant groups. Six hours after the administration, the rats were sacrificed by decaptation and their stomachs were immediately removed. A 5% formaline solution (10 ml) was injected through the cardia into the stomach cavity and the stomach was fixed overnight in a 10% formaline solution. Each fixed stomach was cut along the greater curvature, and the inside of the stomach was investigated by the naked eye to check whether ulcers and erosions occurred or not. An ulcerogenic and erosion index was 0.71±0.42 in Group 1, 1.13±0.40 in Group 2 and 17.57±4.28 in Group 3. The number of rats having ulcers or erosions was 3/7 (42.9%) in Group 1, 4/7 (57.1%) in Group 2 and 7/7 (100%) in Group 3.

Data set [4] deals with female mice of ICR strain. In words: Analgesic and anti-capillary permeability effects according to Wittle's method (acetic acid stretching, PSB exudation). It counts as in vivo. To be noted: oral 25 mg/kg, 1% acetic acid i.p., compared with control Group 3 (P<0.01), no significant difference between Groups 1 and 2; for inhibitory activities of the stretching: stretchings counted for 20 minutes; for inhibitory activities of the exudation of the colorant from the peritoneal cavity: 4% Pontamine Sky Blue i.v. An excerpt:
(b) Analgesic and anti-capillary permeability effects according to Wittle's method:
Three groups of female mice of ICR strain weighing 22-28 g were used, each group consisting of 10 mice; one group (Group 1) was used for the administration of the compound of this invention, another group (Group 2) for the administration of diclofenac sodium salt and the other group (Group 3) as control. […] Immediately after the intraperitoneal injection, the number of stretchings of the treated mice were counted and recorded for 20 minutes. After this observation, the mice were immediately sacrificed by dislocation of cervical vertebrae and subjected to ventrotomy. The peritoneal cavity of each mouse was washed with 5 ml of distilled water to exudate PSB in the peritoneal cavity, and the amount of the colorant exudated was measured.

Where a name gives a salt, the structure may show the parent alone. Read-outs that look alike come from different tables or passages of the source.

Consider `Cc1oc(=O)oc1COC(=O)Cc1ccccc1Nc1c(Cl)cccc1Cl` [compound of this invention, (5-methyl-2-oxo-1,3-dioxolen-4-yl)methyl 2-(2,6-dichloroanilino)phenylacetate], for which the solubility result in data set [1] is “soluble in organic solvents such as alcohols”. The “LD₅₀ values relative to those of diclofenac sodium salt” value with mice of ICR strain is listed as “approximately 3 times”. The LD50 at 168 h in “in vivo” (female mice) was 516 mg/kg. The compound further came in with an LD50 at 168 h in the data set “in vivo” (male mice) of 460 mg/kg. Also, in data set [2], the “swelling of the edema” value is “significantly inhibited”. For the same compound, in data set [3] (rat, in vivo, po, 20 mg/kg), the “number of rats having ulcers or erosions” value is 4/7 (57.1%); the “ulcerogenic and erosion index” value was 1.13±0.40. In data set [4], the “inhibitory activities of the stretching” value was “significant difference” and the “inhibitory activities of the exudation of the colorant from the peritoneal cavity” value is listed as “significant difference”.
With `O=C(O)Cc1ccccc1Nc1c(Cl)cccc1Cl` [diclofenac sodium salt, reference compound], the “swelling of the edema” value in data set [2] is on record as “significantly inhibited”. Besides, in data set [3] (male Wistar rats, 7 per group, 24 hour fasting, oral 20 mg/kg, six hours after administration), the “ulcerogenic and erosion index” value is recorded as 17.57±4.28. Moreover, in data set [4], the “inhibitory activities of the stretching” value is listed as “significant difference” and the “inhibitory activities of the exudation of the colorant from the peritoneal cavity” value is “significant difference”.
On to `CC(C(=O)O)c1ccc(-c2ccccc2)c(F)c1` (stereo not drawn) [flurubiprofen], for which the “swelling of the edema” value in data set [2] was “significantly inhibited”.
As for `COc1ccc2c(c1)c(CC(=O)O)c(C)n2C(=O)c1ccc(Cl)cc1` [indomethacin], the “swelling of the edema” value in data set [2] is reported as “significantly inhibited”.

Source of the values: patent EP0326637A1, “New 2-anilinophenylacetic acid derivative” (Mikasa Seiyaku Co., Ltd., priority 1988, dated 1989).
